The text below walks through data of patent US9737478B2, “Treatment of malaria” (National Institutes of Health (NIH), U.S. Dept. of Health …, priority 2009, dated 2017).

For assay [1], the system named is PbA-infected mice with clinical CM. Kind of assay: Intravital microscopy of pial vessels (closed cranial window) in PbA-infected mice with clinical CM. It counts as in vivo. Particulars: nimodipine 4 mg/kg IP, 30 minutes after injection.
Text: Briefly, mice were anesthetized with ketamine-xylazine, the head held on a stereotaxic frame, the scalp cut off and a 3-4 mm diameter skull opening was made in the left parietal bone using a surgical drill. The exposed area was covered with a 5 mm glass cover slip glued with dental acrylic. Carprofen and ampicillin were given for 3-5 days to prevent pain, inflammation and infection. Two weeks after surgery, mice were lightly anesthetized with isoflurane (4% for induction, 1-2% for maintenance) and held on a stereotaxic frame. A panoramic picture of the window was taken and then mice were transferred to an intravital microscope stage (customized McBain, San Diego, Calif.). Body temperature was maintained using a heating pad. […] Measurements of 6-10 pial venules (diameter range: 22-80 μm, velocity range: 2-4 mm/s) and 2-6 pial arterioles (diameter range: 18-70 μm, velocity range: 3-6 mm/s) were performed in each animal, and blood flow (Q) in each individual vessel was calculated using the equation: Q=V×(D/2)2.
The next day mice were inoculated intraperitoneally with 1×10^6 PbA-GFP pRBC. The intravital microscopy procedure was repeated daily from day 4 of infection until the mice died or were euthanized. Non-infected control mice were submitted to the same procedures. […]
Assay [2] concerns Plasmodium berghei ANKA (PbA). The assay can be described thus: Treatment of PbA-infected mice presenting clinical cerebral malaria (survival, motor score, parasitemia). In kind it is in vivo, C57B1/6 mice. The following applies: for survival: mice with CM.
Experimental: Eight to 10-week old C57B1/6 mice (Jackson Laboratories, ME) were inoculated intraperitoneally with 1×10^6 Plasmodium berghei ANKA (PbA) parasites expressing the GFP protein (obtained from MR4-NIH, deposited by C J Anders and A Waters). Parasitemia, body weight and rectal temperature were checked daily from day 4. […] Five tests were performed: transfer arousal, locomotor activity, tail elevation, wire maneuver and righting reflex. For each test, mice received an individual score, and the sum of scores was used to create a composite score.
PbA-infected mice presenting poor righting reflex, hypothermia and/or other clinical signs of neurological involvement such as ataxia, limb paralysis, seizures and/or roll-over were treated with artemether (Artesiane, Dafra Pharma, Belgium, a kind gift of Dr Alberto Moreno, Emory University, Atlanta, Ga.) given IP at 50 mg/kg, in combination with nimodipine (Sigma, St Louis, Mo.) or vehicle (ethanol:polyethyleneglycol (PEG) 400:saline in 1:1:8 v/v). Nimodipine was dissolved in ethanol (EMD, N.J.), dispersed with polyethyleneglycol 400 (PEG, Sigma) and then saline was added (1:1:8 v/v) and mixed thoroughly. This solution was administered intraperitoneally in three different doses: 1.3 mg/kg, 4 mg/kg and 12 mg/kg. […] Parasitemia, motor behavior and rectal temperature were checked at each timepoint and daily afterwards. After treatment, parasitemia was checked by microscopical examination of Giemsa-stained blood smears to differentiate viable from dead parasites.

For `COCCOC(=O)C1=C(C)NC(C)=C(C(=O)OC(C)C)C1c1cccc([N+](=O)[O-])c1` (stereo not shown) [nimodipine], in assay [1], the “increase in arteriolar blood flow” value is on record as “about 50%”. The survival in assay [2] (adjunctive nimodipine at 4 and 12 mg/kg IP at 0, 12, 24, 36 h with artemether 50 mg/kg IP daily for 5 days) is reported as 60-66.6%.
On to `CO[C@H]1O[C@@H]2O[C@@]3(C)CC[C@H]4[C@H](C)CC[C@@H]([C@H]1C)[C@@]24OO3` [artemether], for which the survival in assay [2] (artemether 50 mg/kg IP daily for 5 days plus vehicle) was 32.2%. The “deaths occurring in the first 36 hours” value in assay [2] (vehicle-treated group (artemether plus vehicle)) was 95.2%.
